Like-named read-outs stand apart in the source and are kept apart here. Bounds are passed on as bounds.

The text below walks through data of patent US20130184290A1, “SELF-EMULSIFYING FORMULATIONS AND METHODS OF USE THEREOF” (CAPSUGEL, Inc., priority 2011, published 2013).

Data set [1] is described as follows: Fed-fasted pharmacokinetics of compound 1 HCl salt. The format is in vivo. To be noted: for half-life: human, in vivo, po, read-out: t1/2 for absorption. From the text:
The fed-fasted pharmacokinetic data were collected using a “normal fat” meal consisting of toast with 1 pat of butter, a banana, 2% milk, apple juice, and Honey Nut Cheerios®, where the meal has about 501 calories with 99 calories from fat, 346 calories from carbohydrates, and 56 calories from protein; and using a “high fat” meal consisting of 2 eggs fried in butter, 2 strips of bacon, 2 slices of toast with butter, 4 ounces of hash brown potatoes and 8 ounces of whole milk, where the meal has about 1,000 calories with 500-600 calories from fat, 250 calories from carbohydrates, and 150 calories, from protein.

The nature of data set [2]: Tolerability of compound 1 doses. It is filed as in vivo. The following applies: doses of up to 1,600 mg. An excerpt: Yet, compound 1 is also known to have decreased oral bioavailability in the fasted state, as compared to the fed state. Accordingly, the invention provides formulations to increase the oral bioavailability or to reduce patient-to-patient variability in pharmacokinetic behavior of compound 1, compound 2, or a salt thereof. These formulations include use of a self-emulsifying carrier system to provide stable emulsions capable of dissolving therapeutically effective amounts of compound 1, compound 2, or a salt thereof.

The test system of the next data set is Caco-2 cells. The data set can be described thus: Apparent intestinal permeability, Caco-2 cell model. The format is in vitro ADME. The following applies: for Papp R3: replicate 3. From the text:
(§1) Absorption of particular drugs may be limited by biological factors, such as reduced cellular permeability in the intestine. Many cellular mechanisms can influence permeability, such as reduced passive paracellular and transcellular transport or increased active export by the efflux transporter protein P-glycoprotein. Thus, the use of self-emulsifying carriers may not be beneficial for drugs having limited cellular permeability, where methods to increase the solubilization of a drug may not increase its permeability in the gastrointestinal tract. Experiments were conducted to assess the apparent intestinal permeability of compound 1 using a Caco-2 cell model.
(§2) Briefly, Caco-2 cells were used as an in vitro model for predicting absorption through the intestinal epithelium. Confluent monolayers of Caco-2 cells were grown on collagen-coated, microporous, polycarbonate membranes (12-well Costar Transwell® plates) that are placed between two chambers. The apical side of the monolayer was exposed to the buffer solution in a first chamber, but the basolateral side of the monolayer adhered to microporous membranes fluidically connected to a second chamber. The dosing solution was added to the first chamber for measurements in the apical-to-basolateral direction (A-to-B) and to the second chamber for measurements in the basolateral-to-apical direction (B-to-A). […] The permeability assay buffer was Hanks Balanced Salt Solution containing 10 mM HEPES and 15 mM glucose at a pH of 7.4. The buffer in the receiver chamber also contained 1% bovine serum albumin. The dosing solution concentration was 1 μM of compound 1 in the assay buffer. All donor chambers were first pre-incubated for five minutes with dosing solution to attempt to saturate any non-specific binding sites on the device with test compound. After five minutes, the solution was removed and replaced with fresh dosing solution, and time was recorded as 0. Cell monolayers were dosed on the apical side/first chamber (for A-to-B measurements) or basolateral side/second chamber (for B-to-A measurements) and incubated at 37° C. with 5% CO2 in a humidified incubator. At 30 and 60 minutes, aliquots were taken from the receiver chambers and replaced with fresh assay buffer. Samples were taken from the donor chamber at 0 and 60 minutes. Each experiment was performed in triplicate.
(§3) The apparent permeability (Papp), percent recovery, and efflux ratio were calculated as follows: […]
(§4) is the slope of the cumulative concentration in the receiver chamber as a function of time; V, [cm^3] is the volume of the receiver chamber; Vd [cm^3] is the volume of the donor chamber; A [cm^2] is the area of the cell monolayer, which is estimated to be about 1.13 cm^2 for the 12-well Costar Transwell® plates; C0[μM] is the measured concentration in the donor chamber at t=0 hours; CN [μM] is the nominal concentration of the dosing solution; Cr,final [μM] is the cumulative concentration in the receiver chamber at the end of the incubation period; and Cd,final [μM] is the cumulative concentration in the donor chamber at the end of the incubation period.
(§5) Thus, absorption of compound 1 in humans is not expected to be permeability limited.

Test in data set [3]: as above
The format is in vitro ADME. The following applies: human, Caco-2, pH 7.4.
Text: as §1, §2, §3, §4, §5

Data set [4] can be described thus: Previously determined solubility of compound 1. It is filed as physicochemical. An excerpt:
Compound 1 has the following previously determined characteristics: […]

Data set [5] is described as follows: Previously determined hygroscopicity of compound 1. The format is physicochemical. To be noted: free base; at 70% relative humidity (RH). An excerpt: Compound 1 has the following previously determined characteristics:
(vi) hygroscopicity (for free base): 0.09% at 70% relative humidity (RH);

Data set [6] can be described thus: Physical stability, formulations having one carrier. It is filed as physicochemical.

For orientation: Tmax means the time at which the peak concentration occurs. Usually Papp A→B stands for the apparent permeability from the apical to the basolateral side of a cell layer. For the compound `O=C(CC(c1ccccc1)c1ccccc1)N1CCN(C(c2ccccc2)c2ccccc2)CC1` [Compound 1, 1-(4-benzhydrylpiperazin-1-yl)-3,3-diphenylpropan-1-one], the Tmax in data set [1] (fed state with high fat meal) lay within 4 to 5 h; in data set [1] (fed state with normal fat meal), 2 to 5 h. Moreover, the half-life in data set [1] (fasted state) lay in the range of 0.05 to 0.17 h; in data set [1] (fed state with high fat meal) it was 0.8 to 2.8 h; in data set [1] (fed state with normal fat meal) it was 0.5 to 1.6 h. The adverse effects entry in data set [2] is on record as “no adverse effects”. Moreover, the results for the “Papp R3” value with Caco-2 cells (A-to-B) and in the data set on Caco-2 cells (B-to-A) were 6.78 10^−6 cm/s and 4.45 10^−6 cm/s, respectively. Besides, the permeability classification result in the data set on Caco-2 cells (based on Papp(A-to-B)) is recorded as “high permeability coefficient”. Besides, in the data set with Caco-2 cells (based on efflux ratio), the “efflux of compound 1” value was “not considered significant”. The Papp A→B at 60 min, 1 μM in data set [3] (A-to-B, average) is above 1 ×10⁻⁶ cm/s. In addition, the efflux ratio at 60 min, 1 μM in data set [3] (read-out: Efflux Ratio (Papp (B-to-A)/Papp (A-to-B))) is below 3. Moreover, the “solubility in propylene glycol, ethanol, and tetrahydrofuran” value in data set [4] is “soluble”. Besides, the “solubility in water” value in data set [4] was “slightly soluble”. In data set [5], this compound came in with a hygroscopicity of 0.09%.
As to Caprylic/capric glycerides, in data set [6], the “Physical Stability, one month” value is reported as above 1 month; the “Physical Stability, one month (cells printed in weeks)” value is above 1 week; the “Physical Stability, one week” value is above 1 week.
As for PEG 8 caprylic/capric glycerides, in data set [6], the “Physical Stability, one month” value is listed as above 1 month and the “Physical Stability, one week” value is above 1 week.
